The values below come from ChEMBL document CHEMBL1156881, “Inhibition of monoamine oxidase by 8-benzyloxycaffeine analogues” (Bioorg Med Chem, 2010).

Data set [1] addresses T1, Amine oxidase [flavin-containing] B (Homo sapiens, UniProt P27338).
T1 sequence (P27338 whole entry): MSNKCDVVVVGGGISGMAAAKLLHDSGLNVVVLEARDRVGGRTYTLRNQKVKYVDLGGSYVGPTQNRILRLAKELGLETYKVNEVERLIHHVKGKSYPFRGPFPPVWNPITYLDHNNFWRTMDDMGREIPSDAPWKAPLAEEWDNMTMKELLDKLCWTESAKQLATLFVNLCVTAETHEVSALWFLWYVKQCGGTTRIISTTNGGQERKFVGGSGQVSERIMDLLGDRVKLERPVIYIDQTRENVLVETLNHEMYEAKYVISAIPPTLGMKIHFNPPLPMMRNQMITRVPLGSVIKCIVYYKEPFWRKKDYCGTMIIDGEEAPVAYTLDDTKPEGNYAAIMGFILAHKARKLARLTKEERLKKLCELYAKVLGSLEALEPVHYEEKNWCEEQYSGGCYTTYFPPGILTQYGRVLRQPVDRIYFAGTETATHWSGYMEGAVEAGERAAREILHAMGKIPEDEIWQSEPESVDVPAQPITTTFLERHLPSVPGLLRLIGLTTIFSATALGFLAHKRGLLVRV
As to the kind of experiment: Inhibition of human recombinant MAOB assessed as 4-hydroxyquinoline formation by fluorimetry.

The species named for a further data set is Homo sapiens. As to the kind of experiment: Selectivity for human recombinant MAOA over human recombinant MAOB.
Data set [2] addresses T2, Amine oxidase [flavin-containing] A (Homo sapiens, UniProt P21397).
T2 sequence (P21397 whole entry): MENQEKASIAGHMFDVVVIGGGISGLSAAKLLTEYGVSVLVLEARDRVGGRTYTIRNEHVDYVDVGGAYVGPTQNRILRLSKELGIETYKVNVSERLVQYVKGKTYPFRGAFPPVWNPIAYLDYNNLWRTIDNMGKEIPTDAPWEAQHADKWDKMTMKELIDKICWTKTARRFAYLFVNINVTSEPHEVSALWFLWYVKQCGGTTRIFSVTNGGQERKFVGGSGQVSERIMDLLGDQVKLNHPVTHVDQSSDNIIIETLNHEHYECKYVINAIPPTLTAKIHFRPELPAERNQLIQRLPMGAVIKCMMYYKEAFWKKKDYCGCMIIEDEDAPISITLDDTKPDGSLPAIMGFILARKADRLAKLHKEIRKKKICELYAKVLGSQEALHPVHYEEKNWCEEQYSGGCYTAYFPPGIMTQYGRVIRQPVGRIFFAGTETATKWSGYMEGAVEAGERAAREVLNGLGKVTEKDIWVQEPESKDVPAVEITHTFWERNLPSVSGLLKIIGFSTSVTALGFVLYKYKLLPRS
As to the kind of experiment: Inhibition of human recombinant MAOA assessed as 4-hydroxyquinoline formation by fluorimetry.

The nature of data set [3]: Inhibition of MAOB in baboon liver mitochondria assessed as MMDP+ production by spectrophotometry. Details: species or system Papio hamadryas.
Data set [4] is filed under the species Papio hamadryas. As to the kind of experiment: Competitive inhibition of MAOB in baboon liver mitochondria by Lineweaver-Burke plot.
Data set [5] addresses T2, Amine oxidase [flavin-containing] A. As to the kind of experiment: Competitive inhibition of human recombinant MAOA by Lineweaver-Burke plot.
Data set [6] deals with T1, Amine oxidase [flavin-containing] B. As to the kind of experiment: Competitive inhibition of human recombinant MAOB by Lineweaver-Burke plot.
In data set [7] the target is T2, Amine oxidase [flavin-containing] A. As to the kind of experiment: Reversible inhibition of human recombinant MAOA assessed as 4-hydroxyquinoline formation by fluorimetry.
For data set [8], the species on record is Papio hamadryas. As to the kind of experiment: Reversible inhibition of MAOB in baboon liver mitochondria at 0.28 uM assessed as MMDP+ production by spectrophotometry.
For data set [9], the target named is T1, Amine oxidase [flavin-containing] B. As to the kind of experiment: Reversible inhibition of human recombinant MAOB at 0.23 uM assessed as 4-hydroxyquinoline formation by fluorimetry.
For data set [10], the target named is T2, Amine oxidase [flavin-containing] A. As to the kind of experiment: Reversible inhibition of human recombinant MAOA at 1.31 uM assessed as 4-hydroxyquinoline formation by fluorimetry.

Calls of active or inactive are those of the source. The rule behind the calls is not given here.

By IC50 is commonly meant the concentration at which inhibition is half-maximal. The term Ki denotes the equilibrium dissociation constant of an inhibitor or competing ligand from its target. With `Cn1c(=O)c2c(nc(OCc3cccc(F)c3)n2C)n(C)c1=O`, the IC50 in data set [1] was 1070 nM; in data set [2], 542 nM; in [3], 534 nM. The inhibition constant (Ki) was 370 nM in data set [1], 180 nM in data set [2] and 310 nM in [3]. The Ratio Ki in the data set listed under Homo sapiens turned out to be 0.49.
For the compound `Cn1c(=O)c2c(nc(OCc3ccccc3)n2C)n(C)c1=O`, the values for the IC50 in data set [1], in data set [2] and in [3] were 1240 nM, 1770 nM and 2490 nM, respectively. Also, the Ki is 430 nM in [1], 590 nM in data set [2] and 1440 nM in data set [3]. The Ratio Ki in the data set listed under Homo sapiens worked out at 1.37.
For the compound `Cc1cccc(COc2nc3c(c(=O)n(C)c(=O)n3C)n2C)c1`, the IC50 in data set [1] was 397 nM; in data set [2], 546 nM; in data set [3], 698 nM. Besides, the figures for the Ki in [1], in data set [2] and in data set [3] were 140 nM, 180 nM and 400 nM, respectively. Moreover, the Ratio Ki in the data set listed under Homo sapiens was determined as 1.29.
As for `Cn1c(=O)c2c(nc(OCc3cccc(C(F)(F)F)c3)n2C)n(C)c1=O`, the inhibition result in the data set filed under Papio hamadryas [4] was “Active”. The concentration for half-maximal inhibition (IC50) stood at 3720 nM in data set [1], 152 nM in [2] and 112 nM in data set [3]. In addition, the Ki in data set [1] was 1300 nM; in data set [2] it was 51 nM; in [3], 65 nM. Also, the Ratio Ki in the data set listed under Homo sapiens was 0.039. In addition, the “inhibition (INH)” value in data set [5], in data set [6] and in data set [7] was “Active” throughout.
With `COc1cccc(COc2nc3c(c(=O)n(C)c(=O)n3C)n2C)c1`, the IC50 in [1] was found to be 3150 nM; in [2], 1010 nM; in [3] it was 1590 nM. Further, the inhibition constant Ki in data set [1] is 1100 nM; in data set [2], 340 nM; in data set [3], 920 nM. In the data set filed under Homo sapiens, the Ratio Ki was determined as 0.31.
As to `Cn1c(=O)c2c(nc(OCc3cccc(Cl)c3)n2C)n(C)c1=O`, in the data set listed under Papio hamadryas [8], the inhibition entry was “Active”. The values for the IC50 in data set [1], in data set [2] and in data set [3] were 666 nM, 107 nM and 120 nM, respectively. The Ki was found to be 230 nM in data set [1], 36 nM in [2] and 69 nM in [3]. Moreover, the Ratio Ki in the data set listed under Homo sapiens is 0.16. Moreover, the “inhibition (INH)” value in [9] and in data set [10] was “Active” throughout.
In the case of `Cn1c(=O)c2c(nc(OCc3cccc(Br)c3)n2C)n(C)c1=O`, the IC50 in data set [1] stood at 941 nM; in data set [2] it was 68 nM; in data set [3], 113 nM. Besides, the Ki in [1] was 330 nM; in data set [2], 23 nM; in [3], 65 nM. Further, the Ratio Ki in the data set filed under Homo sapiens is 0.069.
